Several values for one entry are separate records, joined by “and”; a condition that tells them apart may be missing. Equal entries are not always repeated. Toxic doses and inconclusive results are not listed. Cut-off read from the data, not from the text of the source: active = T/C of 150% or more; inactive = T/C below 125%.
Tested on: L1210 leukemia ip in BDF1 mice, survival T/C
Assay: NCI In Vivo Anticancer Drug Screen. Data for tumor model L1210 Leukemia (intraperitoneal) in B6D2F1 (BDF1) mice
Details: endpoint: mean survival time, higher = longer survival
In short: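 Transplantable tumor model; survival measured in treated vs vehicle control mice. Value = treated/control.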

[1] = dose: 100.0 mg/kg/injection, schedule: Q01DX009 (ip), vehicle: saline with Tween-80
[2] = dose: 400.0 mg/kg/injection, schedule: Q01DX009 (ip), vehicle: saline with Tween-80
[3] = dose: 50.0 mg/kg/injection, schedule: Q01DX009 (ip), vehicle: Klucel (hydroxypropylcellulose) (HPC)
[4] = dose: 100.0 mg/kg/injection, schedule: Q01DX009 (ip), vehicle: Klucel (hydroxypropylcellulose) (HPC)
[5] = dose: 100.0 mg/kg/injection, schedule: Q01DX001 (ip), vehicle: saline
[6] = dose: 200.0 mg/kg/injection, schedule: Q01DX001 (ip), vehicle: saline
[7] = dose: 100.0 mg/kg/injection, schedule: Q04DX002 (ip), vehicle: saline with Tween-80
[8] = dose: 200.0 mg/kg/injection, schedule: Q01DX009 (ip), vehicle: Klucel (hydroxypropylcellulose) (HPC)

Measured: T/C

CN=C(NC)c1ccc(NC(=O)Nc2ccc(NC(=O)Nc3ccc(C(=NC)NC)cc3)cc2)cc1
inactive: dose: 3.94 mg/kg/injection, schedule: Q01DX Z (ip), vehicle: saline 108 % of control | dose: 4.0 mg/kg/injection, schedule: Q01DX Z (ip), vehicle: carboxymethylcellulose (CMC) 107 % of control | dose: 5.9 mg/kg/injection, schedule: Q01DX Z (ip), vehicle: saline 114 % of control | dose: 8.0 mg/kg/injection, schedule: Q01DX Z (ip), vehicle: carboxymethylcellulose (CMC) 121 % of control | dose: 8.86 mg/kg/injection, schedule: Q01DX Z (ip), vehicle: saline 120 % of control | dose: 30.0 mg/kg/injection, schedule: Q01DX Z (ip), vehicle: carboxymethylcellulose (CMC) 101 % of control | dose: 45.0 mg/kg/injection, schedule: Q01DX Z (ip), vehicle: saline 115 % of control

O=C(O)CCCCCN1C(=O)C2=C(CCCC2)C1=O
inactive: dose: 75.0 mg/kg/injection, schedule: Q04DX003 (ip), vehicle: saline 98 % of control | dose: 150.0 mg/kg/injection, schedule: Q04DX003 (ip), vehicle: saline 103 % of control | dose: 300.0 mg/kg/injection, schedule: Q04DX003 (ip), vehicle: saline 93 % of control

CC(C)CC(C)OC(C[N+](=O)[O-])C(Cl)(Cl)Cl (stereo not drawn)
inactive: [1] 93 % of control | dose: 100.0 mg/kg/injection, schedule: Q04DX003 (ip), vehicle: saline with Tween-80 106 % of control | dose: 200.0 mg/kg/injection, schedule: Q04DX003 (ip), vehicle: saline with Tween-80 104 % of control | [2] 93 % of control | dose: 400.0 mg/kg/injection, schedule: Q04DX003 (ip), vehicle: saline with Tween-80 98 % of control

COc1ccc(Cl)cc1NS(=O)(=O)c1c(C)cc(C)cc1C
inactive: dose: 100.0 mg/kg/injection, schedule: Q01DX009 (ip), vehicle: saline 104 % of control | dose: 200.0 mg/kg/injection, schedule: Q01DX009 (ip), vehicle: saline 96 % of control | dose: 400.0 mg/kg/injection, schedule: Q01DX009 (ip), vehicle: saline 111 % of control

COC1OC2COc3ccccc3OC2C(NC#N)C1OC (stereo not drawn)
inactive: dose: 25.0 mg/kg/injection, schedule: Q01DX009 (ip), vehicle: Klucel (hydroxypropylcellulose) (HPC) 102 % of control | [3] 96 % of control | [4] 93 % of control and 87 % of control

Cc1cc(Br)c(N(C=O)N=O)c(Br)c1
inactive: dose: 75.0 mg/kg/injection, schedule: Q01DX001 (ip), vehicle: saline 101 % of control | dose: 150.0 mg/kg/injection, schedule: Q01DX001 (ip), vehicle: saline 104 % of control

COc1ccccc1CN1CCCN(Cc2ccccc2OC)C1c1cc(Br)ccc1O
inactive: dose: 50.0 mg/kg/injection, schedule: Q01DX001 (ip), vehicle: saline 95 % of control | [5] 103 % of control | [6] 103 % of control | dose: 400.0 mg/kg/injection, schedule: Q01DX001 (ip), vehicle: saline 103 % of control

O=C(/C=C(\Br)c1ccccc1)c1ccccc1
inactive: dose: 25.0 mg/kg/injection, schedule: Q01DX005 (ip), vehicle: saline with Tween-80 93 % of control | dose: 25.0 mg/kg/injection, schedule: Q01DX009 (ip), vehicle: saline with Tween-80 88 % of control | dose: 25.0 mg/kg/injection, schedule: Q04DX002 (ip), vehicle: saline with Tween-80 102 % of control | dose: 50.0 mg/kg/injection, schedule: Q01DX005 (ip), vehicle: saline with Tween-80 97 % of control | dose: 50.0 mg/kg/injection, schedule: Q01DX009 (ip), vehicle: saline with Tween-80 98 % of control | dose: 50.0 mg/kg/injection, schedule: Q04DX002 (ip), vehicle: saline with Tween-80 109 % of control | dose: 100.0 mg/kg/injection, schedule: Q01DX005 (ip), vehicle: saline with Tween-80 108 % of control | [7] 91 % of control

Cc1c(Br)c(=O)n(-c2ccccc2)n1C
inactive: [3] 94 % of control | [4] 98 % of control | dose: 100.0 mg/kg/injection, schedule: Q04DX003 (ip), vehicle: Klucel (hydroxypropylcellulose) (HPC) 101 % of control | [8] 100 % of control | dose: 200.0 mg/kg/injection, schedule: Q04DX003 (ip), vehicle: Klucel (hydroxypropylcellulose) (HPC) 100 % of control

BrC1CCC(Br)C(Br)CCC1Br (stereo not drawn)
inactive: dose: 100.0 mg/kg/injection, schedule: Q01DX001 (ip), vehicle: Klucel (hydroxypropylcellulose) (HPC) 101 % of control | [4] 104 % of control | dose: 200.0 mg/kg/injection, schedule: Q01DX001 (ip), vehicle: Klucel (hydroxypropylcellulose) (HPC) 97 % of control | [8] 97 % of control | dose: 400.0 mg/kg/injection, schedule: Q01DX001 (ip), vehicle: Klucel (hydroxypropylcellulose) (HPC) 95 % of control | dose: 400.0 mg/kg/injection, schedule: Q01DX009 (ip), vehicle: Klucel (hydroxypropylcellulose) (HPC) 90 % of control

CCCCS(=O)(=O)N(CC)CC
inactive: dose: 100.0 mg/kg/injection, schedule: Q01DX009 (ip), vehicle: carboxymethylcellulose (CMC) 109 % of control | dose: 200.0 mg/kg/injection, schedule: Q01DX009 (ip), vehicle: carboxymethylcellulose (CMC) 96 % of control

CCOC(=O)Nc1cc(N)cc(NC(=O)OCC)c1
inactive: [3] 101 % of control | [4] 104 % of control | [8] 106 % of control

Cn1cnc2c(C(F)(F)F)nc(N)nc21
inactive: dose: 100.0 mg/kg/injection, schedule: Q04DX003 (ip), vehicle: saline 94 % of control | dose: 200.0 mg/kg/injection, schedule: Q04DX003 (ip), vehicle: saline 102 % of control

C/C=C\c1ccc(OC(=O)Nc2ccc(Cl)cc2)c(OC)c1
inactive: [7] 100 % of control | dose: 200.0 mg/kg/injection, schedule: Q04DX002 (ip), vehicle: saline with Tween-80 100 % of control | dose: 400.0 mg/kg/injection, schedule: Q04DX002 (ip), vehicle: saline with Tween-80 96 % of control

CCOc1ccc(P2(=S)SP(=S)(c3ccc(OCC)cc3)S2)cc1 (stereo not drawn)
inactive: [1] 97 % of control | dose: 100.0 mg/kg/injection, schedule: Q04DX002 (ip), vehicle: Klucel (hydroxypropylcellulose) (HPC) 94 % of control | dose: 200.0 mg/kg/injection, schedule: Q01DX009 (ip), vehicle: saline with Tween-80 91 % of control | dose: 200.0 mg/kg/injection, schedule: Q04DX002 (ip), vehicle: Klucel (hydroxypropylcellulose) (HPC) 88 % of control | [2] 102 % of control | dose: 400.0 mg/kg/injection, schedule: Q04DX002 (ip), vehicle: Klucel (hydroxypropylcellulose) (HPC) 102 % of control

COc1cc2cc3c4cc(OC)c(OC)cc4cc[n+]3c(/C=C/c3cc([N+](=O)[O-])ccc3O)c2cc1OC
inactive: dose: 100.0 mg/kg/injection, schedule: Q01DX001 (ip), vehicle: other 97 % of control and 100 % of control | dose: 100.0 mg/kg/injection, schedule: Q04DX002 (ip), vehicle: other 112 % of control and 92 % of control | dose: 100.0 mg/kg/injection, schedule: Q04DX003 (ip), vehicle: other 106 % of control | dose: 200.0 mg/kg/injection, schedule: Q01DX001 (ip), vehicle: other 97 % of control and 103 % of control | dose: 200.0 mg/kg/injection, schedule: Q04DX002 (ip), vehicle: other 95 % of control and 88 % of control | dose: 200.0 mg/kg/injection, schedule: Q04DX003 (ip), vehicle: other 106 % of control | dose: 400.0 mg/kg/injection, schedule: Q01DX001 (ip), vehicle: other 96 % of control and 107 % of control | dose: 400.0 mg/kg/injection, schedule: Q04DX002 (ip), vehicle: other 94 % of control and 98 % of control | dose: 400.0 mg/kg/injection, schedule: Q04DX003 (ip), vehicle: other 101 % of control

C=C1CC2(CCCC3(CC(=C)C(=O)O3)C2(C)C)OC1=O (stereo not drawn)
inactive: [5] 102 % of control | [6] 119 % of control
